Experimental data published in patent publication US8092805B2, “Dual inhibitors of HIV-1 gp-120 interactions” (priority 2004, dated 2012).

Legend:
[1] = molecular target: T1, YU2 gp120 (Human immunodeficiency virus type 1 group M subtype B, UniProt P35961); type: binding, HIV-1; conditions: SPR
T1 construct: immobilized YU2 gp120
Method: Req. was calculated from 280 to 295 seconds in each concentration sensorgram and plotted against the concentration of the peptide.
Increasing concentrations of peptide were passed over an immobilized high density (5000 RU) surface. […] Buffer injections and controls were subtracted for all reported data. The equilibrium constant KD was calculated from the fit of direct binding to a steady state 1:1 binding model as a function of Req.

[2] = test system: gp120 interaction with CD4; conditions: Biorn et al. 2004; cited from earlier work

Compound	direct interaction with YU2 gp120 (in words) [1]	inhibition of interaction of gp120 to CD4 (in words) [2]
RINNIAmpWSEAMM [Peptide 4]	no effect on gp120	
CC[C@H](C)[C@H](NC(=O)[C@@H](N)CCCNC(=N)N)C(=O)N[C@@H](CC(N)=O)C(=O)N[C@@H](CC(N)=O)C(=O)N[C@H](C(=O)N1CCC[C@H]1C(=O)N[C@@H](Cc1c[nH]c2ccccc12)C(=O)N[C@@H](CO)C(=O)N[C@@H](CCC(=O)O)C(=O)N[C@@H](C)C(=O)N[C@@H](CCSC)C(=O)N[C@@H](CCSC)C(=O)O)[C@@H](C)CC [Peptide 1]		micromolar affinity
